Marks after values point to notes of the source that are not given here. No end group written: not given here. *: point of attachment. Biotin = O=C1N[C@H]2[C@H](CS[C@H]2CCCCC(=O)*)N1
Tested on: P. aeruginosa ATCC 10145
Assay: CFU-assay, P. aeruginosa-cidal activity
Type: cell-based, Pseudomonas aeruginosa
[1] = pH 5.5, 0.25% glucose, listed as HR 1-18 G+H

Substance | MBC90 (pH 5.5, 1% TSB) | MBC100 (pH 5.5, 1% TSB) | MBC90 (pH 5.5, 0.25% glucose) | MBC100 (pH 5.5, 0.25% glucose) | also measured
Biotin-GRHGSGLGHSSSHGQHGSGSGR [Biotin-HR 1-18] |  |  |  |  | MBC100 (pH 5.0, 0.25% glucose): >300 µg/mL
GGSRSGQSSRGERHGSSSGSSSH (Modified peptide derived from human hornerin (HR 1-11 H1-GH2606G))) [HR 1-11 H1-G H2606G] | >300* μg/ml | >300* μg/ml |  |  | 
GHHGGGGGHGGGHGGHGGGGGH (Modified peptide derived from human hornerin (HR 1-18 G+H)) [HR 1-18 G + H] |  |  | <0.006 µM | 0.09 µM | MBC90 (pH 5.0, 0.25% glucose): <0.006 µg/mL; MBC100 (pH 5.0, 0.25% glucose): 0.09 µg/mL; MBC90 [1]: < 0.019 µg/mL; MBC100 [1]: 0.075 µg/mL; MBC90 (pH 7.0, 0.25% glucose): >300 µg/mL; MBC100 (pH 7.0, 0.25% glucose): >300 µg/mL
GHHGGHGGHGHGH (Synthetic cationic intrinsically disordered antimicrobial peptide (GH13)) |  |  | 0.030 µM | 0.12 µM | 
GKKGGKGGKGKGK (Synthetic cationic intrinsically disordered antimicrobial peptide (K-GR13)) |  |  | 0.063 µM | 2.0 µM | 
GOOGGOGGOGOGO [Orn-GR13] |  |  | 0.034 µM | 1.1 µM | 
GRGGSGLGGSSSGGQGGSGSGRSSSRGPY (Modified peptide derived from human hornerin (HR 1-17 4H-4G all H vs G)) |  |  |  |  | MBC90 (pH 5.0, 0.25% glucose): 75 µg/mL; MBC100 (pH 5.0, 0.25% glucose): >300 µg/mL
GRHGGGGGHGGGHGGHGGGGGR (Modified peptide derived from human hornerin (HR 1-18 L-G/Q-G/6S-6G)) |  |  |  |  | MBC90 (pH 5.0, 0.25% glucose): 0.038 µg/mL; MBC100 (pH 5.0, 0.25% glucose): 0.15 µg/mL; MBC90 (pH 7.0, 0.25% glucose): >300 µg/mL; MBC100 (pH 7.0, 0.25% glucose): >300 µg/mL
GRHGSGGGHSSSHGGHGSGSGR (Modified peptide derived from human hornerin (HR 1-18 L-G/Q-G)) |  |  |  |  | MBC90 (pH 5.0, 0.25% glucose): 0.038 µg/mL; MBC100 (pH 5.0, 0.25% glucose): 0.15 µg/mL; MBC90 (pH 7.0, 0.25% glucose): >300 µg/mL; MBC100 (pH 7.0, 0.25% glucose): >300 µg/mL
GRHGSGLGHSSSH (Peptide derived from human hornerin (HR 1-37 HRNR 2656-2668)) [HR 1-37 HRNR2656-2668] |  |  | 9.38 µg/mL | >300 µg/mL | 
GRHGSGLGHSSSHGQH (Peptide derived from human hornerin (HR 1-25 HRNR 2656-2671)) [HR 1-25 HRNR2656-2671] | 0.3 µg/mL | 4.7 µg/mL |  |  | 
GRHGSGSGHSSSHGQHGSGSGR (Peptide derived from human hornerin (HRNR 2186-2207)) [HRNR2186-2207] |  |  |  | 4.7-9.37* μg/ml | 
GRHGSGSGQSSSYGPYGSGSGWSSSRGPY (Peptide derived from human hornerin (HRNR 1952-1980)) [HRNR1952-1980] |  | >300 µg/mL |  |  | 
GRHGSGSGQSSSYGPYRSGSGWSSSRGPY (Peptide derived from human hornerin (HRNR 1013-1041)) [HRNR1013-1041] |  | >300 µg/mL |  |  | 
GRHGSGSGQSSSYSPYGSGSGWSSSR (Peptide derived from human hornerin (HRNR 2422-2447)) [HRNR2422-2447] |  |  |  | >300 µg/mL | 
GRHGSGSGQSSSYSPYGSGSGWSSSRGPY (Peptide derived from human hornerin (HRNR 2422-2450)) [HRNR2422-2450] |  | >300 µg/mL |  |  | 
GSGSRQSLSYGRHGSGSGR (Modified peptide derived from human hornerin (HR 2-4L HRNR 1132-1150 P1139L)) [HR 2-4L HRNR1132-1150 P1139L] | 75 µg/mL | >300 µg/mL |  |  | 
GSGSRQSPSHGRHGSGSGR (Modified peptide derived from human hornerin (HR 2-4H HRNR 1132-1150 Y1141H)) [HR 2-4H HRNR1132-1150 Y1141H] | 75 µg/mL | >300 µg/mL |  |  | 
GSGSRQSPSRGRHGSGSGR (Modified peptide derived from human hornerin (HR 2-4R HRNR 1132-1150 Y1141R)) [HR 2-4R HRNR1132-1150 Y1141R] |  | >300 µg/mL |  |  | 
GSGSRQSPSYGRHGSGSGRSSSSGQH (Peptide derived from human hornerin (HR 2-11 HRNR 1132-1157)) [HR 2-11 HRNR1132-1157] | 37.5 µg/mL | >300 µg/mL |  |  | 
GSGSRQSPSYGRQGSGSGR (Modified peptide derived from human hornerin (HR 2-4Q HRNR 1132-1150 H1144Q)) [HR 2-40 HRNR1132-1150 H1144Q] | >300 µg/mL | >300 µg/mL |  |  | 
GSGSRQSSGHGRQGSGSGQ (Modified peptide derived from human hornerin (HR 1-16 HRNR 2633-2651)) [HR 1-16 HRNR2633-2651] | >300 µg/mL | >300 µg/mL |  |  | 
GSGSRQSSSYGRHGSGSGR (Modified peptide derived from human hornerin (HR 2-4S HRNR 1132-1150 P1139S)) [HR 2-4S HRNR1132-1150 P1139S] | 150 µg/mL | >300 µg/mL |  |  | 
GSRTAGRRGSGH (Peptide derived from human filaggrin-2 (FLG-2 2094-2105)) [FLG-22094-2105] |  |  |  | >300 µg/mL | 

Substance | MBC90 (pH 5.5, 1% TSB) | MBC100 (pH 5.5, 1% TSB) | MBC90 (pH 5.5, 0.25% glucose) | MBC100 (pH 5.5, 0.25% glucose) | also measured
HAHSGHGQSTQR (Peptide derived from human filaggrin-2 (FLG-2 2082-2093)) [FLG-22082-2093] |  |  | 0.15 µg/mL | 2.35 µg/mL | 
HAHSGHGQSTQRGSR (Peptide derived from human filaggrin-2 (FLG-2 2082-2096)) [FLG-22082-2096] |  |  | 0.15 µg/mL | 1.18 µg/mL | 
HAHYGYGQSTQRGSRTTGRRGSGH (Peptide derived from human filaggrin-2 (FLG-2 2232-2255)) [FLG-22232-2255] |  |  | 0.075 µg/mL | 0.59 µg/mL | 
HGH (Synthetic cationic intrinsically disordered antimicrobial peptide (GH3)) |  |  | 200 µM | >860 µM | 
HGHGH (Synthetic cationic intrinsically disordered antimicrobial peptide (GH5)) |  |  | 6.0 µM | 138 µM | 
HGHGHGH (Synthetic cationic intrinsically disordered antimicrobial peptide (GH7)) |  |  | 0.25 µM | 7.2 µM | 
HGHGHGHGH (Synthetic cationic intrinsically disordered antimicrobial peptide (GH9)) |  |  | 0.18 µM | >400, μM | MBC99 (pH 5.5, 0.25% glucose): MBC99: 99 μM
HGQSTQRGSRTAGRRGSGH (Peptide derived from human filaggrin-2 (FLG-2 2087-2105)) [FLG-22087-2105] |  |  | 0.075 µg/mL | 1.18 µg/mL | 
HGSGLGHSSSHGQHGSGSGR (Peptide derived from human hornerin (HR 1-8 HRNR2658-2677)) |  | >300 µg/mL | 4.7 µg/mL | >300 µg/mL | 
HGSGSGQSSRGERHGSSSGSSSH (Modified peptide derived from human hornerin (HR 1-11 R1-G R2609G)) | >300* μg/ml | >300* μg/ml |  |  | 
HGSRSGQSSGGERHGSSSGSSSH (Modified peptide derived from human hornerin (HR 1-11 R2-G R2615G)) | 75 µg/mL | >300 µg/mL |  |  | 
HGSRSGQSSGGGRHGSSSGSSSH (Modified peptide derived from human hornerin (HR 1-11 E-G E2617G)) | 0.59 µg/mL | >300 µg/mL |  |  | 
HGSRSGQSSRGEGHGSSSGSSSH (Modified peptide derived from human hornerin (HR 1-11 R3-G R2618G)) | 75 µg/mL | >300 µg/mL |  |  | 
HGSRSGQSSRGERGGSSSGSSSH (Modified peptide derived from human hornerin (HR 1-11 H2-G H2619G)) | 75 µg/mL | >300 µg/mL |  |  | 
HGSRSGQSSRGERHGSSSGSSSG (Modified peptide derived from human hornerin (HR 1-11 H3-G H2628G)) | 18.75 µg/mL | >300 µg/mL |  |  | 
HGSSSGSSSHYGQHGSGSR (Peptide derived from human hornerin (HR 1-4 HRNR 2619-2637)) [HR 1-4 HRNR2619-2637] | 150 µg/mL | >300 µg/mL |  |  | 
HR 2-8: CIDAMP tested alone and in 1:1 mixture with HR 1-8 HRNR2658-2677 (GSGSRQSPSYGR; Peptide derived from human hornerin (HR 2-8)) | 18.75 µg/mL | >300 µg/mL |  |  | 
HSQRGSGSRQSPSYGRH (Modified peptide derived from human hornerin (HR 2-16 HRNR1128-1144)) |  |  |  | 37.5 (only at μg/ml | 
HSSSHGQHGSGSGR (Peptide derived from human hornerin (HR 1-38 HRNR 2664-2677)) [HR 1-38 HRNR2664-2677] |  |  |  | >300 µg/mL | 
HTHSGHAHGQAGSQHGESGSSVHER (Peptide derived from human filaggrin-2 (FLG-2 2044-2068)) [FLG-22044-2068] |  |  | 0.038 µg/mL | 0.3 µg/mL | 
HTHSGHTHGQAGSHYPESGSSVHER (Peptide derived from human filaggrin-2 (FLG-2 1969-1993)) [FLG-21969-1993] |  |  | 0.038 µg/mL | 0.3 µg/mL | 
HTHSGHTHGQARSQHGESESIVHER (Peptide derived from human filaggrin-2 (FLG-2 1742-1766)) [FLG-21742-1766] |  |  | 0.038 µg/mL | 0.15 µg/mL | 
HTHSGHTHGQSGSQHGESESIIHDR (Peptide derived from human filaggrin-2 (FLG-2 1515-1539)) [FLG-21515-1539] |  |  | 0.075 µg/mL | 0.59 µg/mL | 
